{"source": "patent US20260283924A1", "about": "“TOPICAL COMPOSITIONS FOR PROMOTING HAIR GROWTH” (ESTETRA SRL, priority 2023, published 2026)", "test_system": "occipital hair follicles (healthy donor)", "assay": "Healthy donor hair follicle organ culture (ex vivo model), Example 8", "format": "cell-based, human", "conditions": "300 nM", "description": "In brief, 24 full-length occipital hair follicles (HF) were obtained from one healthy donor. […] Test substance (either vehicle (0.03% EtOH), E2 at concentration of 300 nM or E4 at concentrations of 3 μM or 300 nM) was added to the medium at the end of the 24 h. Total culturing time was 5 days depending on the stage of the HFs in the vehicle group. The experimental design is depicted in FIG. 23.", "data": [{"smiles": "C[C@]12CC[C@@H]3c4ccc(O)cc4CC[C@H]3[C@@H]1CC[C@@H]2O", "note": "[Formulation E2, 17beta-estradiol]", "values": [{"measurement": "K15 expression in the suprabulbar outer root sheath", "value": "tendentially increased"}, {"measurement": "area of the dermal papilla", "value": "no effect"}, {"measurement": "density of cells in the dermal cup of anagen HFs", "value": "no effect"}, {"measurement": "density of cells in the dermal papilla", "value": "no effect"}, {"measurement": "density of cells in the dermal papilla stalk", "value": "no effect"}, {"measurement": "hair matrix keratinocyte proliferation", "value": "tendentially increased"}, {"measurement": "hair shaft production (reduction vs vehicle)", "value": "significantly reduced"}, {"measurement": "microscopic hair cycle", "value": "did not affect the hair cycle"}, {"measurement": "number of CD34+ cells in the suprabulbar outer root sheath", "value": "no effect"}, {"measurement": "number of cells (K15) in the suprabulbar outer root sheath", "value": "tendentially increased"}, {"measurement": "total number of cells in the dermal cup of anagen HFs", "value": "no effect"}, {"measurement": "total number of cells in the dermal papilla", "value": "no effect"}, {"measurement": "total number of cells in the dermal papilla stalk", "value": "no effect"}, {"measurement": "K15 expression in the suprabulbar outer root sheath", "setting": "listed as Estradiol", "value": "tendentially increase K15 expression"}, {"measurement": "area of the dermal papilla", "setting": "listed as Estradiol", "value": "does not display a significant effect"}, {"measurement": "density of cells in the dermal cup of anagen HFs", "setting": "listed as Estradiol", "value": "does not display a significant effect"}, {"measurement": "density of cells in the dermal papilla", "setting": "listed as Estradiol", "value": "does not display a significant effect"}, {"measurement": "density of cells in the dermal papilla stalk", "setting": "listed as Estradiol", "value": "does not display a significant effect"}, {"measurement": "hair matrix keratinocyte proliferation", "setting": "listed as Estradiol", "value": "increased"}, {"measurement": "hair shaft production (reduction vs vehicle)", "setting": "listed as Estradiol", "value": "Reduction of hair shaft production"}, {"measurement": "microscopic hair cycle", "setting": "listed as Estradiol", "value": "does not affect hair cycle"}, {"measurement": "number of CD34+ cells in the suprabulbar outer root sheath", "setting": "listed as Estradiol", "value": "does not display any effect"}, {"measurement": "number of cells (K15) in the suprabulbar outer root sheath", "setting": "listed as Estradiol", "value": "tendentially increase"}, {"measurement": "total number of cells in the dermal cup of anagen HFs", "setting": "listed as Estradiol", "value": "does not display a significant effect"}, {"measurement": "total number of cells in the dermal papilla", "setting": "listed as Estradiol", "value": "does not display a significant effect"}, {"measurement": "total number of cells in the dermal papilla stalk", "setting": "listed as Estradiol", "value": "does not display a significant effect"}]}]}
